“Also recorded” adds a separate entry of the source.
Columns and labels:
Rac protein = test: Nuclear transfer of GFP/Rac fusion protein in transformed HUVEC, observed by fluorescence microscopy; assay type: cell-based; conditions: HUVEC expressing GFP/Rac fusion protein; pitavastatin 1 μM, 15 hours stationary culture; GFP fluorescence, nuclei stained with Hoechst
Description: The present inventors measured the behavior of Rac protein in HUVEC with an HMG-CoA reductase inhibitor, particularly pitavastatin. For this measurement, a gene encoding a Rac/fluorescence protein GFP fusion protein was introduced into HUVEC to prepare a transformed cell expressing a GFP/Rac fusion protein. This transformed cell was cultured, and the state of Rac distributed in the cell in the presence or absence of pitavastatin was examined by observing the fluorescence of GFP. A gene encoding the whole area of a Rac translation region was introduced into a predetermined position of a commercial plasmid pEGFP-C1 for preparation of a fusion protein consisting of GFP and a desired protein, to construct a plasmid comprising the GFP-Rac gene. After HUVECs were put to a 6-well plate and then cultured overnight in EGM-2 medium. Using Fugene 6, the plasmid construct DNA prepared above was added in an amount of 0.8 μg/well to the cells. The cells were further cultured for 21 hours in EGM-2 medium, and then the fluorescence of GFP was observed under a fluorescence microscope. Six hours after the culture of HUVECs to which the plasmid construct DNA had been added was initiated, pitavastatin was added to the cells to a final concentration of 1 μM. And then the cells were subjected to stationary culture for 15 hours, fixed onto a prepared slide and observed under a fluorescence microscope. […]

[1] = test system: vascular endothelial cells; conditions: cited from earlier work

O=C(O)C[C@H](O)C[C@H](O)/C=C/c1c(C2CC2)nc2ccccc2c1-c1ccc(F)cc1 [pitavastatin, (3R,5S,6E)-7-[2-cyclopropyl-4-(4-fluorophenyl)-3-quinolyl]-3,5-dihydroxy-6-heptenoic acid]
state of Rac distributed in the cell (transfer of GFP-Rac into the nucleus) (Rac protein): fluorescence of GFP was localized in a certain area of the cells; also recorded: GFP-Rac is transferred to a nucleus | expression of MCP-1 [1]: suppresses | expression of NO synthase [1]: promotes | expression of PAI-1 [1]: suppresses | expression of PTX3 [1]: suppresses | expression of endothelin [1]: suppresses | expression of inflammatory cytokine IL-8 [1]: suppresses | expression of thrombomodulin [1]: promotes

Source: patent US8309574B2, “Nuclear transfer promoter for Rac protein and method of screening the same” (Kowa Company, Ltd., priority 2004, dated 2012)
